Patent publication US20130296426A1, “ANALGESIC” (NAGOYA INDUSTRIAL SCIENCE RESEARCH INSTITUTE, priority 2011, published 2013)

Tests used:
Assay type in all cases: in vivo, rat
MIA-induced OA rats [1] = experiment: von Frey test, single administration to MIA-induced OA rats; conditions: for Recovery rate of 50% reaction threshold value (%): 1 hour after administration of test drug
Description: There were conducted the following experiments for testing the analgesic action of the analgesic of the present invention using the osteoarthritis (OA) rats induced by sodium monoiodoacetate (MIA) which were model animals for OA.
A 50% reaction threshold value to the mechanical stimulus of male Wistar rats of six weeks age was measured (the measuring method will be mentioned later) and a normal control group was selected. MIA prepared by saline was administered in a single dose of 0.3 mg/50 μL into right knee joint of the rats except the normal control group while 50 μL of saline was administered into left knee joint whereupon the MIA-induced OA rats were prepared. To the normal control group, 50 μL of saline was administered into the joints of both knees.
(§1) With regard to the male Wistar rats of six weeks age used as experimental animals except the normal control group, their 50% reaction threshold values to the mechanical stimulus (the measuring method will be mentioned later) and body weights were measured after 24 days from the administration of MIA mentioned in (1) and then 4 groups each comprising six rats [a normal control group, an onset control group, a test drug-administered group and a loxoprofen sodium hydrate (LOX)-administered group (a positive control)] were organized.
A test drug solution (0.1 mg/mL) using the compound 4 as a test drug and a LOX suspension (1 mg/mL) were prepared using a phosphate buffered saline (PBS) containing 0.1 vol % of dimethyl sulfoxide (DMSO) and a 0.5 w/v % aqueous solution of carboxymethyl cellulose, respectively.
(§2) Immediately after the grouping (after 24 days from the administration of MIA), a test drug solution was intraperitoneally administered in a single dose of 0.5 mg/kg to a test drug-administered group while, a LOX suspension was orally administered in a single dose of 5 mg/kg to a LOX-administered group. Meanwhile, to the normal control group and the onset control group, PBS containing 0.1 vol % of DMSO was intraperitoneally administered in a single dose.
The four groups of rats of the above (2) were placed in a transparent acrylic cage with a wire-meshed floor and habituated for about three minutes and the 50% reaction threshold values to the mechanical stimulus were measured after 1, 3, 5 and 24 hours from the administration of a test drug.
The measurement was conducted using von Frey filaments (manufactured by North Coast Medical Inc.) in accordance with the methods of Chaplan, et al. (Journal of Neuroscience Methods, vol. 53, no. 1, pages 55 to 63, 1994) and Dixon, et al. (Annual Review of Pharmacology and Toxicology; vol. 20, pages 441 to 462, 1980). […] The case where the rat escaped at the instance of removing the filament was also called positive. When the positive reaction was noted, stimulus was conducted similarly using a filament of one rank weaker while, when no reaction was noted, stimulus was conducted similarly using a filament of one rank stronger and the point when the reaction changed from negative to positive or from positive to negative was called the first two reactions. After that, stimulus was conducted for continuous four times by the same up-down method. A 50% reaction threshold value to the mechanical stimulus was measured using the reaction to the six stimuli in total and then (mean value)±(standard error) for each group was calculated. Incidentally, when stimulus reached by that of 15.0 g without positive reaction or, when positive reaction continued to 0.4 g, then 15.0 g or 0.25 g was adopted as each threshold value, respectively.
The test for significant difference was performed using the test in two groups (Student's t-test or Welch test) or Wilcoxon test between the normal control group and the onset control group, between the onset control group and the test drug-administered group, between the onset control group and the LOX-administered group and between the test drug-administered group and the LOX-administered group. […]

MIA-induced OA rats [2] = experiment: von Frey test, repeated administration to MIA-induced OA rats; conditions: for Recovery rate of 50% reaction threshold value (%): repeated administration, 1 hour after administration of test drug
Description: Selection of the normal control group and preparation of MIA-induced OA rats were conducted in the same manner as in the above 1.(1).
as §1, with “stimulus, weight bearing rate to a MIA-non-administered hind paw” for “stimulus”, “27” for “24”, “four” for “4”, “LOX-administered” for “loxoprofen sodium hydrate (LOX)-administered”
A test drug solution and an LOX suspension were prepared in the same manner as in the above 1.(2).
as §2, with “During eight days from immediately” for “Immediately”, “27 to 34” for “24”, “repeated” for “a single”, “repeatedly.” for “in a single dose.”
In the same manner as in the above 1.(4), the 50% reaction threshold values to the mechanical stimulus were measured after 1, 3, 5 and 24 hour(s) from the final administration of a test drug. Mean value±standard error for each group was calculated and the test for significant difference was done in the same manner as in the above 1.(4).
The analgesic of the present invention was repeatedly administered to the MIA-induced OA rat and a von Frey test was conducted in the same manner as in the above test 1.(4) whereupon each 50% reaction threshold value was measured. With regard to the 50% reaction threshold value after 1 hour from the administration of a test drug, a recovery rate (%) of the 50% reaction threshold value was calculated in the same manner as in the above test 1.(4).

MIA-induced OA rats [3] = experiment: Weight bearing rate to MIA-non-administered hind paw (dual channel weight averager), repeated administration
Description: as §2, with “During eight days from immediately” for “Immediately”, “27 to 34” for “24”, “repeated” for “a single”, “repeatedly.” for “in a single dose.”
One hind paw of a rat where OA was induced by administration of MIA develops a pain symptom. Therefore, a body weight bearing to a painless hind paw to which no MIA was administered increases in a rat for avoiding the application of body weight to the hind paw after administration of MIA. […] Using this weight bearing rate to the MIA-non-administered hind paw as an index, the analgesic action of the analgesic of the present invention was measured.
The weight bearing rate to the MIA-non-administered hind paw was determined by the following formula after measuring the weight distribution to right and left hind paws of a rat using a device for evaluating the analgesic effect for small animals (Incapacitance Tester manufactured by Linton Instrumentation). Mean value±standard error for each group was also calculated and the test for significant difference was carried out in the same manner as in the above 1.(4). […]

[4] = system: experimental autoimmune neuritis (EAN) rats; experiment: von Frey test in Guillain-Bareé syndrome model (EAN) rats
Description: The following experiment for checking the analgesic action of the analgesic of the present invention was conducted using the experimental autoimmune neuritis (EAN) rats which were the model animals for Guillain-Bareé syndrome having an on set of chronic pain.
The 50% reaction threshold value to mechanical stimulus of female Lewis rats of seven weeks age were measured to select a normal control group. Left hind paw of each of the anesthetized rats except the normal control group was immunized by subcutaneous administration of 0.1 mL of an emulsion prepared by equivalent mixing of a 2 mg/mL solution of a peptide derived from bovine P2 protein (SP-26) with an adjuvant complete Freund H37Ra whereupon EAN rats were prepared.
The grouping was conducted and a test drug was administered in the same manner as in (2) and (3) of the Pharmacological Test II.
A von Frey test was carried out in the same manner as in 1.(4) of the above Pharmacological Test I to measure the 50% reaction threshold value to the mechanical stimulus to each group over time. The test for significant difference was conducted and recovery rate (%) of the 50% reaction threshold value was calculated in the same manner as in (4) of the above Pharmacological Test II.

With `CCCCCCC/C=C/C(=O)OC` [Compound 3, Trans-2-decenoic acid methyl ester] the “Recovery rate of 50% reaction threshold value (%)” value (“Recovery rate … (%)” for short) (MIA-induced OA rats [1]; single dose) was 32.4% and the “Recovery rate … (%)” value (MIA-induced OA rats [2]) was 23.3%.
For `CCCCCCC/C=C/C(=O)OCC` [Compound 4, Trans-2-decenoic acid ethyl ester], the “Recovery rate … (%)” value (MIA-induced OA rats [1]; single dose) was 61.6%, the “50% reaction threshold value to the mechanical stimulus” value (MIA-induced OA rats [1]; single intraperitoneal dose 0.5 mg/kg, 24 days after MIA, vs onset control group, FIG. 1) was “significantly high” and the “weight bearing rate to the MIA-non-administered hind paw” value (MIA-induced OA rats [3]; repeated intraperitoneal 0.5 mg/kg for eight days, vs onset control group, FIG. 3) was “significantly decreased”. For the same compound, the “50% reaction threshold value to the mechanical stimulus” value (MIA-induced OA rats [2]; repeated intraperitoneal 0.5 mg/kg for eight days, after 1 and 3 hour(s) from the final administration, vs onset control group, FIG. 2) was “significantly high”, the “Recovery rate … (%)” value ([4]; 0.25 mg/kg/day intraperitoneal once daily, After 8 days) was 100.0^[…] % and the “Recovery rate … (%)” value ([4]; 0.25 mg/kg/day intraperitoneal once daily, After 11 days) was 40.1^[…] %. The “Recovery rate … (%)” value ([4]; 0.25 mg/kg/day intraperitoneal once daily, After 25 days) was 21.7^[…] %, the “Recovery rate … (%)” value ([4]; 0.25 mg/kg/day intraperitoneal once daily, After 28 days) was 24.2^[…] % and the “Recovery rate … (%)” value ([4]; 0.50 mg/kg/day intraperitoneal once daily, After 8 days) was 98.5^[…] %. For the same compound, the “Recovery rate … (%)” value ([4]; 0.50 mg/kg/day intraperitoneal once daily, After 11 days) was 35.5%, the “Recovery rate … (%)” value ([4]; 0.50 mg/kg/day intraperitoneal once daily, After 25 days) was 38.3^[…] % and the “Recovery rate … (%)” value ([4]; 0.50 mg/kg/day intraperitoneal once daily, After 28 days) was 38.3^[…] %.
For `CCCCCCC/C=C/C(=O)OCCC` [Compound 5, Trans-2-decenoic acid propyl ester], the “Recovery rate … (%)” value (MIA-induced OA rats [1]; single dose) was 8.1%.
With `CCCCCCC/C=C/COC(=O)/C=C/CCCCCCC` [Compound 16, Trans-2-decenoic acid trans-2-decenyl ester] the “Recovery rate … (%)” value (MIA-induced OA rats [1]; single dose) was 39.6%, the “weight bearing rate to the MIA-non-administered hind paw” value (MIA-induced OA rats [3]; repeated intraperitoneal 0.5 mg/kg/day, FIG. 4) was “significantly lowered” and the “Recovery rate … (%)” value (MIA-induced OA rats [2]) was 61.4%.
For `C=CCCCCCCCCOC(=O)/C=C/CCCCCCC` [Compound 17, Trans-2-decenoic acid trans-9-decenyl ester], the “Recovery rate … (%)” value (MIA-induced OA rats [1]; single dose) was 19.5%.
In the case of `CCCCCCC/C=C/C(=O)OC1CCCCC1` [Compound 18, Trans-2-decenoic acid cyclohexyl ester], the “Recovery rate … (%)” value (MIA-induced OA rats [1]; single dose) is reported as 20.8% and the “Recovery rate … (%)” value (MIA-induced OA rats [2]) is reported as 32.6%.
`CCCCCC/C=C/CC(=O)OCC` [Compound 20, Trans-3-decenoic acid ethyl ester] was tested, and the “Recovery rate … (%)” value (MIA-induced OA rats [1]; single dose) was 17.7% and the “Recovery rate … (%)” value (MIA-induced OA rats [2]) was 66.3%.
In the case of `CC(C(=O)O)c1ccc(CC2CCCC2=O)cc1` (stereo not shown) [LOX, loxoprofen sodium hydrate, reference compound], the “suppressive action to hyperalgesia (50% reaction threshold value)” value (MIA-induced OA rats [1]; single oral dose 5 mg/kg, 24 days after MIA, vs onset control group, FIG. 1) is reported as “no significant suppressive action to hyperalgesia”.
`CCCCCCC/C=C/C(=O)O` [trans-2-decenoic acid, reference compound] was tested, and the “suppressive effect for hyperalgesia (50% reaction threshold value before vs after 1 hour from administration)” value (MIA-induced OA rats [1]; single dose, 1 hour after administration) was “no suppressive effect for hyperalgesia”.
